A short description of series [1]: Pharmacokinetic determination in rats. The note with it: rat, male SD rats, plasma, oral administration (PO) 5 mg/kg; for MRT inf: read-out: MRT0-∞. The class given is in vivo. The procedure: SD rats were used as test animals to study the pharmacokinetic behavior of the compounds of the present invention in rats (plasma) after oral administration.
3 SD rats per group, male.
Formulation of drug for oral administration: 0.5% CMC-Na (1% Tween 80)
5 g of sodium carboxymethyl cellulose (CMC-Na, viscosity: 800-1200 Cps) was weighed and dissolved in 1000 mL of purified water, and 10 g of Tween 80 was added. These materials were uniformly mixed to form a clear solution.
The example compounds were weighed and dissolved in the solution and the mixture was shaken well and ultrasonicated for 15 min to obtain a colorless clear solution with a concentration of 0.5 mg/mL. Formulation of drug for intravenous administration: 5% DMSO + 10% Solutol HS15 + 85% PBS
After overnight fasting, 3 male SD rats per group were administered orally (PO) at a dose of 5 mg/kg with an administration volume of 10 mL/kg. […]
0.2 mL of blood was collected from the jugular vein of the experimental animals before administration and at 0.25 h, 0.5 h, 1.0 h, 2.0 h, 4.0 h, 6.0 h, 8.0 h, and 24.0 h after administration and placed in an EDTA-2K test tube, and the test tube was centrifuged at 8000 rpm for 6 min at 4°C to separate the plasma, which was stored at -80°C; and the animals were fed 4 h after administration.
3 Experimental results: The final determination results were obtained by using LCMS/MS method.

Another series deals with T1, human CYP11B1 (Homo sapiens, UniProt P15538).
T1 construct: The main elements of an expression plasmid include ORF of human CYP11B1 or human CYP11B2; expressed in transfected cells
T1 sequence (P15538 25-503): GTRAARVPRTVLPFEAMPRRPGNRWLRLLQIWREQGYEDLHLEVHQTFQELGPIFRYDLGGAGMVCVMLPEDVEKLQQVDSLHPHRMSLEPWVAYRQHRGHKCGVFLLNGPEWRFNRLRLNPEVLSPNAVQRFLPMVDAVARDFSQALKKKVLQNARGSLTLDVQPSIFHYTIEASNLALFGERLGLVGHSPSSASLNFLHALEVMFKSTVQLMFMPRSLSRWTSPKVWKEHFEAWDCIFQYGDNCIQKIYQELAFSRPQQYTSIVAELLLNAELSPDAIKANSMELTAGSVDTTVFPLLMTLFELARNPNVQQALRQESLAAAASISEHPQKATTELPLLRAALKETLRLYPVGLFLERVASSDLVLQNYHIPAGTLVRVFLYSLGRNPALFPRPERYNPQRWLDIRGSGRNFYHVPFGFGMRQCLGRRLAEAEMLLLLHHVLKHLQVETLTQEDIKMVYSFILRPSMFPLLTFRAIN
Kind of series: G-402 cell enzyme experiment, CYP11B1 (cortisol product, HTRF), selectivity versus CYP11B2. The note with it: human selective factor: ratio of CYP11B1 EC50 to CYP11B2 EC50; G-402 cells. The class given is cell-based. From the text:
(§1) G-402 cell line was used as host cells to express (by transient or stable transfection) an enzyme of the human CYP11 family. Specifically, G-402 cell lines stably expressing human CYP11B1 and human CYP11B2 were established respectively. […] Therefore, the G-402 cell line is very suitable as a host cell for the ectopic expression of an enzyme of the CYP11 family.
(§2) The G-402 cell line, originally derived from renal myoblastoma, can be obtained from ATCC (CRL-1440). The main elements of an expression plasmid include ORF of human CYP11B1 or human CYP11B2, a suitable promoter (CMV promoter), and a suitable resistance marker (neomycin). The expression plasmid was transfected into G-402 cells by standard technology, and a specific antibiotic was then given for screening. The activity of the enzyme expressed by the screened monoclonal cells was assessed by 11-deoxycorticosterone (substrate of CYP11B2) and 11-deoxycortisol (substrate of CYP11B1).
(§3) The G-402 cells expressing CYP11 plasmid, as established in the above solution, were cultured in McCoy's 5a Modified Medium (ATCC Catalog No. 30-2007) containing 10% FCS and 400 µg/ml G418 in an incubator at 37°C and 5% CO2. A cell enzyme experiment was carried out using DMEM/F12 medium containing 2.5% charcoal-treated FBS and an appropriate concentration of a substrate (1 µM 11-deoxycorticosterone or 1 µM 11-deoxycortisol). In order to detect the activity of the enzyme in the cells, the cells were plated in a 96-well plate and incubated for 16 h. The supernatant was then transferred and analyzed for the concentration of the expected product (the product of CYP11B2: aldosterone; the product of CYP11B1: cortisol). The concentrations of these products were determined by an HTRF experiment of CisBio.
(§4) In the cell enzyme experiment, the inhibitory effect of the test compound on the generated product can reflect the inhibitory effect thereof on the enzyme. The dose-dependent inhibition of the enzyme activity by the compound was calculated by plotting the concentration of the test compound (x axis) versus the measured product level (y axis). Then, the original data was fitted to a 4-parameter sigmoidal function (Morgan-Mercer-Flodin, MMF model) by least square method: y = (AB + Cx^D) / (B + x^D) in which A is the maximum y value, B is the EC50 determined by XLFit, C is the minimum y value, and D is the slope value. The maximum value A corresponds to the amount of the product detected without an inhibitor, and C corresponds to the amount of the product detected in the G402 cells expressing an empty plasmid.
(§5) The EC50 value of the compound of the present invention was determined by the above G-402 experiment system. The activity of the CYP11B2 enzyme was determined under the conditions of 1 µM 11-deoxycorticosterone and a variable amount of the inhibitor, and the activity of the CYP11B1 enzyme was determined under the conditions of 1 µM 11-deoxycortisol and a variable amount of the inhibitor.
In general terms: TR-FRET usually uses a lanthanide donor and a delayed reading to cut background.

Another series has as its target T2, human CYP11B2 (Homo sapiens, UniProt P19099).
T2 construct: The main elements of an expression plasmid include ORF of human CYP11B1 or human CYP11B2; expressed in transfected cells
T2 sequence (P19099 25-503): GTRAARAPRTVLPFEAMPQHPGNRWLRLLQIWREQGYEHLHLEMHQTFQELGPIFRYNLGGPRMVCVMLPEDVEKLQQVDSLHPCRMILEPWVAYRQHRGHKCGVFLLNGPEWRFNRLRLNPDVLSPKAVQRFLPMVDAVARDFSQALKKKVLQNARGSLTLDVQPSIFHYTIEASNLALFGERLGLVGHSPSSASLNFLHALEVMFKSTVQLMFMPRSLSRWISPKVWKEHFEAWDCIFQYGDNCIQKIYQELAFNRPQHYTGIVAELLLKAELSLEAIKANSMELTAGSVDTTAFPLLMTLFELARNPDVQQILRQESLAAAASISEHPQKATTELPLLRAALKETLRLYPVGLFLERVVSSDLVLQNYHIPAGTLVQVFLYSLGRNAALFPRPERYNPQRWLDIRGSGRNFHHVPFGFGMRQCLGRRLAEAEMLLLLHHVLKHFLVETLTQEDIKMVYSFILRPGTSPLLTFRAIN
Kind of series: G-402 cell enzyme experiment, CYP11B2 (aldosterone product, HTRF). The class given is cell-based. The note with it: G-402 cells stably expressing human CYP11B2, 1 µM 11-deoxycorticosterone, 16 h.
Text: as §1, §2, §3, §4, §5

The text below walks through data of patent EP4696688A1, “BENZO-FUSED RING COMPOUND INHIBITOR, AND PREPARATION METHOD THEREFOR AND USE THEREOF” (Shanghai Hansoh Biomedical Co., Ltd., priority 2023, dated 2024).

Each structure is given as a SMILES string. Where two headings read alike, the source gives them in different places.

In general, AUC(0-inf) refers to total exposure, with the tail of the curve extrapolated. Higher therefore signals more exposure. By AUC(0-t) is commonly meant exposure summed from dosing to a finite time, without extrapolation to infinity. Low readings indicate low exposure, high ones high exposure. As usually defined, the Cmax is the peak of the concentration-time curve. In general, Tmax refers to the time from dosing to the highest level. The term half-life denotes the time in which the quantity being followed falls by half. On to `CCC(=O)N[C@@H]1CCCc2c(-c3ccc4c(c3)COC(=O)N4C)cncc21` [Example 1-A], for which, in series [1], the AUC(0-inf) came to 27700 ng·h/mL, the AUC(0-t) is 27600 ng·h/mL, the Cmax is 6330 ng/mL and the time to peak (Tmax) turned out to be 1 h. In series [1], the half-life is 2.6 h and the MRT inf worked out at 3.7 h. The hsF on human CYP11B1 amounted to 144x.
For orientation: EC50 means the concentration needed to bring the measured effect to its halfway point. A high value points to lower potency in that assay. `CCC(=O)NC1CCCc2c(-c3ccc4nc(OC)ccc4c3)cncc21` (stereo not drawn) [Example 14-A]: the EC50 on human CYP11B2 is 24 nM.
Turning to `CCS(=O)(=O)N1CC(Oc2cncc(-c3ccc4nc(OC)ccc4c3)c2)C1` [Example 22, 6-(5-((1-(ethylsulfonyl)azetidin-3-yl)oxy)pyridin-3-yl)-2-methoxyquinoline], the EC50 at human CYP11B2 amounted to 5 nM. Compared with the last molecule, the EC50 is about 4.8-fold lower.
For the molecule `COc1ccc2cc(-c3cncc4c3CCCC4NC(C)=O)ccc2n1` (stereo not drawn) [Example 24-A], the midpoint of the response at human CYP11B2, the EC50, lay at 16 nM.
On human CYP11B2, `CCC(=O)N1CC2(C1)CN(c1cncc(-c3ccc4nc(OC)ccc4c3)c1)C2` [Example 36, 1-(6-(5-(2-methoxyquinolin-6-yl)pyridin-3-yl)-2,6-diazaspiro[3.3]heptan-2-yl)propan-1-one] gave a concentration for a half-maximal effect (EC50) of 26 nM. Besides, the hsF at human CYP11B1 was 2766x.
As for `CCC(=O)NC1CCCc2c(-c3cc(F)c4c(c3)CCc3nncn3-4)cncc21` (stereo not drawn) [Example 37, N-(4-(9-fluoro-4,5-dihydro-[1,2,4]triazolo[4,3-a]quinolin-7-yl)-5,6,7,8-tetrahydroisoquinolin-8-yl)propanamide], the concentration giving a half-maximal response (EC50) on human CYP11B2 was 35 nM.
The same measure, in the same setting: the value for `COc1ccc2cc(-c3cncc(N4CCN(C(=O)c5cnn(C)c5)CC4)c3)ccc2n1` [Example 50, (4-(5-(2-methoxyquinolin-6-yl)pyridin-3-yl)piperazin-1-yl)(1-methyl-1H-pyrazol-4-yl)methanone] was 8 nM; that for `CCC(=O)NC1CC2(C1)CN(c1cncc(-c3ccc4nc(OC)ccc4c3)c1)C2` [Example 64, N-(2-(5-(2-methoxyquinolin-6-yl)pyridin-3-yl)-2-azaspiro[3.3]heptan-6-yl)propanamide] was 32 nM; that for `CCC(=O)N[C@@H]1CCCc2c(-c3ccc4c(c3)sc(=O)n4C)cncc21` [Example 65, (R)-N-(4-(3-methyl-2-oxo-2,3-dihydrobenzo[d]thiazol-6-yl)-5,6,7,8-tetrahydroisoquinolin-8-yl)propanamide] was 89 nM.
For `Cn1cc(C(=O)N2CC3(C2)CN(c2cncc(-c4ccc5c(c4)sc(=O)n5C)c2)C3)cn1` [Example 67, 3-methyl-6-(5-(6-(1-methyl-1H-pyrazole-4-carbonyl)-2,6-diazaspiro[3.3]heptan-2-yl)pyridin-3-yl)benzo[d]thiazol-2(3H)-one], in series [1], the AUC(0-inf) is 31400 ng·h/mL, the area under the curve AUC(0-t) is 31400 ng·h/mL, the highest level (Cmax) was 4910 ng/mL and the time of peak concentration (Tmax) was found to be 4 h. Also, in series [1], the half-life was 2 h and the MRT inf turned out to be 3.9 h. Also, at human CYP11B1, the hsF was above 485x.
Turning to `CCC(=O)Nc1cccc2c(-c3ccc4nc(OC)ccc4c3)cncc12` [Example 68, N-(4-(2-methoxyquinolin-6-yl)isoquinolin-8-yl)propanamide], the concentration giving a half-maximal response (EC50) on human CYP11B2 is 33 nM.
On the same count and under the same terms, the value for `COc1ccc2cc(-c3cncc(N4CCC(NC(=O)c5cnn(C)c5)CC4)c3)ccc2n1` [Example 71, N-(1-(5-(2-methoxyquinolin-6-yl)pyridin-3-yl)piperidin-4-yl)-1-methyl-1H-pyrazole-4-carboxamide] was 4 nM; that for `[2H]C([2H])([2H])N(C(=O)c1cnn(C)c1)C1CCN(c2cncc(-c3ccc4nc(OC)ccc4c3)c2)CC1` [Example 72, N-(1-(5-(2-methoxyquinolin-6-yl)pyridin-3-yl)piperidin-4-yl)-1-methyl-N-(methyl-d3)-1H-pyrazole-4-carboxamide] was 10 nM.
Molecule `COCC(=O)N1CC2(C1)CN(c1cncc(-c3ccc4nc(OC)ccc4c3)c1)C2` [Example 80, 2-methoxy-1-(6-(5-(2-methoxyquinolin-6-yl)pyridin-3-yl)-2,6-diazaspiro[3.3]heptan-2-yl)ethan-1-one] yielded an EC50 on human CYP11B2 of 17 nM.
Same read-out and setting: the value for `CN(c1cncc(-c2ccc3c(c2)sc(=O)n3C)c1)C1CN(C(=O)c2cnn(C)c2)C1` [Example 89, 3-methyl-6-(5-(methyl(1-(1-methyl-1H-pyrazole-4-carbonyl)azetidin-3-yl)amino)pyridin-3-yl)benzo[d]thiazol-2(3H)-one] was 9 nM; that for `CCS(=O)(=O)N1CC(Oc2cncc(-c3ccc4c(c3)sc(=O)n4C)c2)C1` [Example 90, 6-(5-((1-(ethylsulfonyl)azetidin-3-yl)oxy)pyridin-3-yl)-3-methylbenzo[d]thiazol-2(3H)-one] was 23 nM.
`Cn1c(=O)sc2cc(-c3cncc(N4CC5(CN(C(=O)C6(C#N)CC6)C5)C4)c3)ccc21` [Example 105, 1-(6-(5-(3-methyl-2-carbonyl-2,3-dihydrobenzo[d]thiazol-6-yl)pyridin-3-yl)-2,6-diazaspiro[3.3]heptane-2-carbonyl)cyclopropane-1-carbonitrile]: in series [1] (in vivo), the area under the curve AUC(0-inf) was 66500 ng·h/mL, the AUC(0-t) came to 60400 ng·h/mL, the maximum concentration (Cmax) is 6040 ng/mL and the Tmax is 4 h. In series [1] (in vivo), the half-life is 7 h and the MRT inf was determined as 9.6 h. For the same molecule, on human CYP11B1, the hsF is 1372x.
